Patent US5750530A, “Pharmaceutical diketopiperazine compounds” (Xenova Limited, priority 1994, dated 1998)
Counter-ions that a name gives are not always drawn. Like-named read-outs stand apart in the source and are kept apart here.

Biological target: PAI-1 (Homo sapiens, UniProt P05121)
Test: biochemical
Type: biochemical
Method: The present compounds have been tested in a PAI functional assay. In this assay, a compound is incubated with PAI-1 prior to addition to the tPA assay system. Inhibition of PAI-1 results in the production of plasmin from plasminogen. In turn, plasmin cleaves the chromogenic substrate S2251 (Kabi Vitrum) producing pNA (p-nitroaniline) which is detected spectrophotometrically at 405 nm (K. Nilsson et al, Fibrinolysis (1987) 1, 163-168).
The present compounds were tested in a PAI chromogenic substrate assay. In the assay (K. Nilsson, Fibrinolysis (1987) 1, 163-168) each compound was incubated with PAI-1 prior to addition to the tPA assay system. […] In turn, the plasmin cleaved the chromogenic substrate S2251 (Kabi-Vitrum) producing pNA (p-nitroaniline) which was detected spectrophotometrically at 405 nm.
The degrees of inhibition observed in the chromogenic substrate assay at various concentrations, or the IC50 values, for each compound are presented in Table 1.

[1] = PAI chromogenic substrate assay

PAI-1, sequence (P05121 24-402): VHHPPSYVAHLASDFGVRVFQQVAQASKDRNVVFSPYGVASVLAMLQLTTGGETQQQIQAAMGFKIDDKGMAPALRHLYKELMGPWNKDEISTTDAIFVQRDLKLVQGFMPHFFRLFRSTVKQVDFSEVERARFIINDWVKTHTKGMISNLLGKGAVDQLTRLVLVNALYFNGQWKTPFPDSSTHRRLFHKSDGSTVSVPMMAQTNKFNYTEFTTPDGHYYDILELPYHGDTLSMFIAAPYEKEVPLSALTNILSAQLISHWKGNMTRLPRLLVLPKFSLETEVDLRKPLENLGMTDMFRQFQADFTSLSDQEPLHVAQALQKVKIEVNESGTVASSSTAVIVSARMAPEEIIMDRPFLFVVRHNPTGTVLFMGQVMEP

Row | SMILES | % Inhibition (5 μm) [%] | % Inhibition (20 μm) [%] | IC50 [1] [µM] | % Inhibition (100 μm) [%] | IC50 [µM]
1 | CN(C)CCSc1ccc(/C=c2\[nH]c(=O)/c(=C/c3ccccc3)[nH]c2=O)cc1[N+](=O)[O-] [Compound 5400, (3Z,6Z)-6-Benzylidene-3-(4-(2-dimethylaminoethylthio)-3-nitrobenzylidene)-2,5-piperazinedione] | 61 | 60 | 4.5 | – | –
2 | CN(C)CCSc1ccc(/C=c2\[nH]c(=O)/c(=C/c3c4ccccc4cc4ccccc34)[nH]c2=O)s1 [Compound 5498, (3Z,6Z)-6-(9-Anthrylmethylene)-3-(5-(2-dimethylaminoethylthio)-2-thienyl)methylene-2,5-piperazinedione] | 15 | 52 | 20 | – | –
3 | CN(C)CCSc1ccc(/C=c2\[nH]c(=O)/c(=C/c3cccc([N+](=O)[O-])c3)[nH]c2=O)cc1 [Compound 5422, (3Z,6Z)-6-(4-(2-Dimethylaminoethylthio)benzylidene)-3-(3-nitrobenzylidene)-2,5-piperazinedione] | 3 | 21 | – | – | –
4 | CSc1ccc(/C=c2\[nH]c(=O)/c(=C/c3ccc(SCCN(C)C)cc3)[nH]c2=O)cc1 [Compound 5426, (3Z,6Z)-3-(4-(2-Dimethylaminoethylthio)benzylidene)-6-(4-methylthiobenzyidene)-2,5-piperazinedione] | 25 | 52 | 5.7 | – | –
5 | CN(C)CCSc1ccc(/C=c2\[nH]c(=O)/c(=C/c3ccc(C(F)(F)F)cc3)[nH]c2=O)cc1 [Compound 5294.HCl, (3Z,6Z)-3-(4-(2-Dimethylaminoethylthio)benzylidene)-6-(4-trifluoromethylbenzylidene)-2,5-piperazinedione] | – | – | 10 | – | –
6 | Cc1ccc(/C=c2\[nH]c(=O)/c(=C/c3ccc(SCCN(C)C)cc3)[nH]c2=O)cc1 [Compound 5463.HCl, (3Z,6Z)-3-(4-(2-Dimethylaminoethylthio)benzylidene)-6-(4-methylbenzylidene)-2,5-piperazinedione] | 78 | 80 | 3.1 | – | –
7 | CN(C)CCSc1ccc(/C=c2\[nH]c(=O)/c(=C/c3ccnc4ccccc34)[nH]c2=O)s1 [Compound 5307, (3Z,6Z)-6-(5-(2-Dimethylaminoethylthio)-2-thienyl)methylene-3-(4-quinolylmethylene)-2,5-piperazinedione] | – | 83 | 8.5 | 88 | –
8 | CN(C)CCSc1ccc(/C=c2\[nH]c(=O)/c(=C/CC(C)(C)C)[nH]c2=O)s1 [Compound 5502.HCl, (3Z,6Z)-3-(5-(2-Dimethylaminoethylthio)-2-thienyl)methylene-6-(3,3-dimethyl-1-butylidene)-2,5-piperazinedione] | 0 | 32 | – | – | –
9 | Cc1ccc(/C=c2\[nH]c(=O)/c(=C/c3ccc(SCCN(C)C)cc3)[nH]c2=O)cc1 [Compound 5463, (3Z,6Z)-3-(4-(2-Dimethylaminoethylthio)benzylidene)-6-(4-methylbenzylidene)-2,5-piperazinedione] | 76 | 78 | 4 | – | –
10 | COc1cccc(/C=c2\[nH]c(=O)/c(=C/c3ccc(SCCN(C)C)cc3)[nH]c2=O)c1 [Compound 5438, (3Z,6Z)-6-(4-(2-Dimethylaminoethylthio)benzylidene)-3-(3-methoxybenzylidene)-2,5-piperazinedione] | – | 18 | – | – | –
11 | COc1cccc(/C=c2\[nH]c(=O)/c(=C/c3ccc(SCCN(C)C)s3)[nH]c2=O)c1 [Compound 5314.HCl, (3Z,6Z)-3-(5-(2-Dimethylaminoethylthio)-2-thienyl)methylene-6-(3-methoxybenzylidene)-2,5-piperazinedione] | – | – | 9.5 | – | –
12 | CN(C)CCSc1ccc(/C=c2\[nH]c(=O)/c(=C/c3ccc4ccccc4c3)[nH]c2=O)s1 [Compound 5286, (3Z,6Z)-3-(5-(2-Dimethylaminoethylthio)-2-thienyl)methylene-6-(2-naphthyl)methylene-2,5-piperazinedione] | – | 87 | 8 | 98 | –
13 | CN(C)CCSc1ccc(/C=c2\[nH]c(=O)/c(=C/c3cccc(C(F)(F)F)c3)[nH]c2=O)s1 [Compound 5315.HCl, (3Z,6Z)-3-(5-(2-Dimethylaminoethylthio)-2-thienyl)methylene-6-(3-trifluoromethylbenzylidene)-2,5-piperazinedione] | – | 10 | – | – | –
14 | CC(C)/C=c1\[nH]c(=O)/c(=C/c2ccc(SCCN(C)C)s2)[nH]c1=O [Compound 5448, (3Z,6Z)-3-(5-(2-Dimethylaminoethylthio)-2-thienyl)methylene-6-(2-methylpropylidene)-2,5-piperazinedione] | 0 | 0 | – | – | –
15 | CN(C)CCSc1ccc(/C=c2\[nH]c(=O)/c(=C/c3cn(C)c4ccccc34)[nH]c2=O)cc1 [Compound 5497, (3Z,6Z)-6-(4-(2-Dimethylaminoethylthio)benzylidene)-3-(1-methyl-3-indolyl)methylene-2,5-piperazinedione] | 17 | 72 | 11 | – | –
16 | CN(C)CCSc1ccc(/C=c2\[nH]c(=O)/c(=C/c3ccc([N+](=O)[O-])cc3)[nH]c2=O)cc1 [Compound 5461, (3Z,6Z)-3-(4-(2-Dimethylaminoethylthio)benzylidene)-6-(4-nitrobenzylidene)-2,5-piperazinedione] | 1 | 44 | – | – | –
17 | COc1cc(/C=c2\[nH]c(=O)/c(=C/c3ccc(SCCN(C)C)cc3)[nH]c2=O)ccc1OCc1ccc([N+](=O)[O-])cc1 [Compound 5490, (3Z,6Z)-6-(4-(2-Dimethylaminoethylthio)benzylidene)-3-(3-methoxy-4-(4-nitrobenzyloxy)benzylidene)-2,5-piperazinedione] | 6 | 48 | 20 | – | –
18 | COc1ccc(/C=c2\[nH]c(=O)/c(=C/c3ccc(SCCN(C)C)cc3)[nH]c2=O)cc1 [Compound 5479.HCl, (3Z,6Z)-3-(4-(2-Dimethylaminoethylthio)benzylidene)-6-(4-methoxybenzylidene)-2,5-piperazinedione] | 62 | 75 | 4.8 | – | –
19 | CN(C)CCSc1ccc(/C=c2\[nH]c(=O)/c(=C/c3cccc(OCc4ccccc4)c3)[nH]c2=O)s1 [Compound 5487.HCl, (3Z,6Z)-6-(3-Benzyloxybenzylidene)-3-(5-(2-dimethylaminoethylthio)-2-thienyl)methylene-2,5-piperazinedione] | 7 | 54 | 7.2 | – | –
20 | CN(C)CCSc1ccc(/C=c2\[nH]c(=O)/c(=C/c3ccc4c(c3)OCO4)[nH]c2=O)s1 [Compound 5279, (3Z,6Z)-3-(5-(2-Dimethylaminoethylthio)-2-thienyl)methylene-6-(3,4-methylenedioxybenzylidene)-2,5-piperazinedione] | – | 64 | – | 68 | 20
21 | COc1cc(/C=c2\[nH]c(=O)/c(=C/c3ccc(SCCN(C)C)s3)[nH]c2=O)ccc1OCc1ccc([N+](=O)[O-])cc1 [Compound 5488.HCl, (3Z,6Z)-3-(5-(2-Dimethylaminoethylthio)-2-thienyl)methylene-6-(3-methoxy-4-(4-nitrobenzyloxy)benzylidene)-2,5-piperazinedione] | 15 | 60 | 7.6 | – | –
22 | CN(C)CCSc1ccc(/C=c2\[nH]c(=O)/c(=C/c3cccc(OCc4ccccc4)c3)[nH]c2=O)cc1 [Compound 5486, (3Z,6Z)-3-(3-Benzyloxybenzylidene)-6-(4-(2-dimethylaminoethylthio)benzylidene)-2,5-piperazinedione] | 13 | 55 | 20 | – | –
23 | CN(C)CCSc1ccc(/C=c2\[nH]c(=O)/c(=C/c3cccc(C(F)(F)F)c3)[nH]c2=O)cc1 [Compound 5423.HCl, (3Z,6Z)-6-(4-(2-Dimethylaminoethylthio)benzylidene)-3-(3-trifluoromethylbenzylidene)-2,5-piperazinedione] | 2 | 35 | 20 | – | –
24 | CN(C)CCSc1ccc(/C=c2\[nH]c(=O)/c(=C/c3ccc4c(c3)OCO4)[nH]c2=O)cc1 [Compound 5491.HCl, (3Z,6Z)-6-(4-(2-Dimethylaminoethylthio)benzylidene)-3-(3,4-methylenedioxybenzylidene)-2,5-piperazinedione] | 0 | 47 | 20 | – | –
